Measured values as given in ChEMBL document CHEMBL5120937, “Design, Synthesis, and Biological Activity of l-1'-Homologated Adenosine Derivatives” (ACS Med Chem Lett, 2022).

Legend:
[1] = biological target: T1, Peroxisome proliferator-activated receptor alpha (Homo sapiens) (UniProt Q07869); assay: Binding affinity to PPARalpha (unknown origin) at 10 uM by TR-FRET based LanthaScreen competitive binding assay relative to control
T1 sequence (whole entry): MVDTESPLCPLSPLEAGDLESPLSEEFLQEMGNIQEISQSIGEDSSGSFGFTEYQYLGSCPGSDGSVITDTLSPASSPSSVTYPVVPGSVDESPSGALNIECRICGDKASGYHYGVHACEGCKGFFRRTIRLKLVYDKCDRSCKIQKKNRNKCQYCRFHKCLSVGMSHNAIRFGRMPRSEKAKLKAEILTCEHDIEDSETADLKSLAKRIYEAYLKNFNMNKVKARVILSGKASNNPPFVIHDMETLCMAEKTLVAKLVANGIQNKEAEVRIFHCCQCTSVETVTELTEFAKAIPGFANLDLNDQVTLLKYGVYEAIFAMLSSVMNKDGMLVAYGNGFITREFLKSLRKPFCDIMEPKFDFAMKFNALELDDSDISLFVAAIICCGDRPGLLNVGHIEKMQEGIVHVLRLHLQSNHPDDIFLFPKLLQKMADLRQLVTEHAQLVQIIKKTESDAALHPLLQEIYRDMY

[2] = biological target: T2, Peroxisome proliferator-activated receptor gamma (Homo sapiens) (UniProt P37231); assay: Binding affinity to PPARgamma (unknown origin) at 10 uM by TR-FRET based LanthaScreen competitive binding assay relative to control
T2 sequence (whole entry): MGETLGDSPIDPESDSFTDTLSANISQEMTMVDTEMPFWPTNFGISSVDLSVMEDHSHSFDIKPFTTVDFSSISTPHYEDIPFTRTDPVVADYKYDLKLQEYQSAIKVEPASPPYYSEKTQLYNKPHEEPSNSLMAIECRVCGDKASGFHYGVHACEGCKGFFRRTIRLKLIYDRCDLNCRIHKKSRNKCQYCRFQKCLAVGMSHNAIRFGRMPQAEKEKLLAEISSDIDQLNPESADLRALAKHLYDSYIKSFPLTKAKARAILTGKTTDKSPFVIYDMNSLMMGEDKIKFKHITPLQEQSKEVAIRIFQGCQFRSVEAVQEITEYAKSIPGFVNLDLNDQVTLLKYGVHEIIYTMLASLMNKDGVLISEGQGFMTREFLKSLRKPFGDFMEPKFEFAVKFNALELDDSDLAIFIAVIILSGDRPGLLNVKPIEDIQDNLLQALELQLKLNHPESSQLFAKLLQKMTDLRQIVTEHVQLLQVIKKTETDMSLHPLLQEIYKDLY

[3] = biological target: T3, Peroxisome proliferator-activated receptor delta (Homo sapiens) (UniProt Q03181); assay: Binding affinity to PPARdelta (unknown origin) at 10 uM by TR-FRET based LanthaScreen competitive binding assay relative to control
T3 sequence (whole entry): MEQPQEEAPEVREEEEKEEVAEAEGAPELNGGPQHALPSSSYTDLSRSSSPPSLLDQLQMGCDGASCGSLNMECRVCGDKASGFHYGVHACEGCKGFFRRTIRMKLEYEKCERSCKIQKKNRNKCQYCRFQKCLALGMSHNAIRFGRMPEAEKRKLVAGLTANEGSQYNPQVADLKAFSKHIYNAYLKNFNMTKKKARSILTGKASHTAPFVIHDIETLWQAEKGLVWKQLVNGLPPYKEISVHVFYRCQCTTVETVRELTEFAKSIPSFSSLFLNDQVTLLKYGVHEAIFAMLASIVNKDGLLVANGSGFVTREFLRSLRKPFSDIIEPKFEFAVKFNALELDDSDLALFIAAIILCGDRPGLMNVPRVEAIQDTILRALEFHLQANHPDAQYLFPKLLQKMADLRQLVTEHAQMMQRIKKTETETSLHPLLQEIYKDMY

[4] = biological target: T4, Peroxisome proliferator-activated receptor delta (Homo sapiens, UniProt Q03181)
T4 sequence (Q03181 whole entry): T3 sequence (whole entry)
Description: Binding affinity to PPARdelta (unknown origin) by TR-FRET based LanthaScreen competitive binding assay

[5] = system: Mesenchymal stem cells; assay: Induction of adipogenesis in human differentiated BMMSC cells assessed as fold increase in adiponectin production at 10 uM measured on 5 day in presence of IDX induction medium by ELISA; assay type: functional
[6] = system: Mesenchymal stem cells; assay: cells; conditions: Homo sapiens, 120 h
Description: Induction of adipogenesis in human differentiated BMMSC cells assessed as increase in adiponectin secretion and measured on 5 day in presence of IDX induction medium by ELISA

Work on `O[C@@H]1[C@H](O)CO[C@H]1Cn1cnc2c(NCc3cccc(I)c3)nc(Cl)nc21` yielded an Activity [1] of 3.9%.

With `O[C@H]1[C@@H](O)CO[C@@H]1Cn1cnc2c(NCc3cccc(F)c3)nc(Cl)nc21` the Activity [1] was 14.5%, the Activity [2] was 6.3% and the Activity [3] was 29.5%.

`O[C@H]1[C@@H](O)CO[C@@H]1Cn1cnc2c(NCc3cccc(Cl)c3)ncnc21` showed an Activity [1] of 3.1%, an Activity [2] of 5.9% and an Activity [3] of 21.5%.

`O[C@H]1[C@@H](O)CO[C@@H]1Cn1cnc2c(NCc3cccc(Cl)c3)nc(Cl)nc21` was tested, and the Activity [1] was 19.1%, the Activity [2] was 10.7% and the Activity ([3]; filed as antagonist) was 46.3%.

`O[C@H]1[C@@H](O)CO[C@@H]1Cn1cnc2c(NCc3cccc(Br)c3)nc(Cl)nc21` gave an Activity [1] of 8.7%, an Activity [2] of 25.5% and a Ki [4] of 3400 nM.

With `O[C@H]1[C@@H](O)CO[C@@H]1Cn1cnc2c(NCc3cccc(I)c3)ncnc21` the Activity [1] was 13.2%, the Activity [2] was 3.9% and the Activity [3] was 16.3%.

`COc1ccc(Cl)cc1C(=O)NCCc1ccc(S(=O)(=O)NC(=O)NC2CCCCC2)cc1` [GLYBURIDE] was tested, and the “fold change (FC)” value [5] was 6.2.

For `CCc1ccc(CCOc2ccc(CC3SC(=O)NC3=O)cc2)nc1` (stereo unspecified) [PIOGLITAZONE], the “fold change (FC)” value [5] was 7.8 and the EC50 [6] was 900 nM.

In the case of `O[C@H]1[C@@H](O)CO[C@@H]1Cn1cnc2c(NCc3cccc(F)c3)ncnc21`, the Activity [1] is reported as 7.6%, the Activity [2] is reported as 11.5% and the Activity [3] is reported as 8%.

In the case of `O[C@H]1[C@@H](O)CO[C@@H]1Cn1cnc2c(NCc3cccc(I)c3)nc(Cl)nc21`, the Activity [1] is reported as 17.2%.

`O[C@H]1[C@@H](O)CO[C@@H]1Cn1cnc2c(NCc3cccc(Br)c3)ncnc21` showed an Activity [1] of 3.8%, an Activity [2] of 12.5% and an Activity [3] of 1.2%.
